In this assay the target is DP IV (Sus scrofa, UniProt P22411). The experiment in a line: Ki-determination, photometric DP IV assay with substrate GP-4-Nitroanilide. In kind it is biochemical. The note with it: competitor of GP-4-Nitroanilide, 3.5 nM DP IV, 30° C., pH 7.6 40 mM HEPES. As to the method: In order to measure the inhibition constant Ki a photometric assay was used The test compounds were measured as competitors of the standard substrate GP-4-Nitroanilide. Three different substrate concentrations (0.4 mM to 0.05 mM) were combined with 8 different competitor concentrations (0.5 mM to 2 μM). The reaction was started by addition of 3.5 nM DP IV. Experiments were carried out under standard conditions: 30° C. in pH 7.6 40 mM HEPES (Sigma-Aldrich) buffer. Nitroaniline production was monitored using a HTS 7000+microplate reader (PerkinElmer, Überlingen, Germany). The Ki-values were calculated via non-linear regression using the enzyme kinetic program Grafit 4.016 (Erithacus Ltd, UK).

Consider one compound from US20050014946A1, “Substituted amino ketone compounds” (priority 2001, published 2005).

Chain of DP IV (P22411 whole entry): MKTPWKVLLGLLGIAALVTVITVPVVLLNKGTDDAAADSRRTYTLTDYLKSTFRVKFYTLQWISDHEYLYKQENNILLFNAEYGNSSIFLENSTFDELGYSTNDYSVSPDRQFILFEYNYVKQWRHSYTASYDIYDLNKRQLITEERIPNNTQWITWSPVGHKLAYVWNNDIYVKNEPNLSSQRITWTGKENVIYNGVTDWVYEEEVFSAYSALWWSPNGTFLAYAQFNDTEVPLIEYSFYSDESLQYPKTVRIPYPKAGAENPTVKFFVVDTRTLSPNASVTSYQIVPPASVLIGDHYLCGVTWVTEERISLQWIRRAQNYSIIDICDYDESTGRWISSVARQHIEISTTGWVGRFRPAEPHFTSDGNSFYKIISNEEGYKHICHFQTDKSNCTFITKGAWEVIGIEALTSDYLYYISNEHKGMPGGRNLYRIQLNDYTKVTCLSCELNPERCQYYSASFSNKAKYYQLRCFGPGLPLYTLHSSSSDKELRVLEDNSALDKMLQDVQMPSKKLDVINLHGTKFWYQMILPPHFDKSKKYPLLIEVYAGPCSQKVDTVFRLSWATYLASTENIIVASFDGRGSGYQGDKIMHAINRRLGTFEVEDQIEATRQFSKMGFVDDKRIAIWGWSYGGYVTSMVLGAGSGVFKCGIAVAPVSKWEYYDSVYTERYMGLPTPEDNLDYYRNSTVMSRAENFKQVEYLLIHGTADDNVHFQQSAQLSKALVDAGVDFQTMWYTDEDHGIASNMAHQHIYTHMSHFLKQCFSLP

Turning to `CCC(C)C(N)C(=O)C1CCCC1` (stereo not shown) [Example 1, 1-cyclopentyl-3-methyl-1-oxo-2-pentanaminium chloride], the affinity corresponds to a Ki of 6.29 µM.

Broadly, the Ki is a measure of affinity in units of concentration, obtained from inhibition or displacement. Read a high Ki as weaker binding.
